Columns and labels:
[1] = tested on: AKT2 (human), P31751 [S474D]
AURKA (human) = AURKA (human) (UniProt O14965)
BRSK2 (human) = BRSK2 (human) (UniProt Q8IWQ3)
CSK (human) = CSK (human) (UniProt P41240)
CaMK1 (human) = CaMK1 (human) (UniProt Q14012)
EPHA2 (human) = EPHA2 (human) (UniProt P29317)
FLT1 (human) = FLT1 (human) (UniProt P17948)
GCK (human) = GCK (human) (UniProt Q12851)
HIPK1 (human) = HIPK1 (human) (UniProt Q86Z02)
HIPK2 (human) = HIPK2 (human) (UniProt Q9H2X6)
HIPK3 (human) = HIPK3 (human) (UniProt Q9H422)
LCK (mouse) = conditions: accession and sequence are those of the human protein
MAPK1 (human) = MAPK1 (human) (UniProt P28482)
MAPK1 (human), sequence (P28482 whole entry, looked up): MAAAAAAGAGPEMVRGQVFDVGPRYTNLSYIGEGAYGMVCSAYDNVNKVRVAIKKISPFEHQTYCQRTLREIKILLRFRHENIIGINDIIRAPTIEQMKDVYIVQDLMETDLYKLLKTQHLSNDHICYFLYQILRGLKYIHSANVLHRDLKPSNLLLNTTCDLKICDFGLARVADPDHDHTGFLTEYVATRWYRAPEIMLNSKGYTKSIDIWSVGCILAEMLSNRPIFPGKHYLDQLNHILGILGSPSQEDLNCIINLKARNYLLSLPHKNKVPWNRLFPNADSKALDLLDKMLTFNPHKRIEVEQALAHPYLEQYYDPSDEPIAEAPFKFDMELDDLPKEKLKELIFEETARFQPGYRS

MAPK11 (human) = MAPK11 (human) (UniProt Q15759)
MAPK11 (human), sequence (Q15759 whole entry, looked up): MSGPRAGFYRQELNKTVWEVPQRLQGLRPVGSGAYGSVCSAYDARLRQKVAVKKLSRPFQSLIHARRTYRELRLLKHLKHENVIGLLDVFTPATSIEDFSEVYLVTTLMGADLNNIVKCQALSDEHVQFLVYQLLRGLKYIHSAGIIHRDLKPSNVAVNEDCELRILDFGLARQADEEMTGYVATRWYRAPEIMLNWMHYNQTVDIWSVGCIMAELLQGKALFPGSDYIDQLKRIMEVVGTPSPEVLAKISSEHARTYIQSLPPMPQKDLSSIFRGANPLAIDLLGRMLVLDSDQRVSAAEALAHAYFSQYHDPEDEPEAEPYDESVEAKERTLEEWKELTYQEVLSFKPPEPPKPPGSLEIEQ

MAPKAPK3 (human) = MAPKAPK3 (human) (UniProt Q16644)
[2] = tested on: PAK2 (human), Q13177 [T402E]
PAK2 (human), Q13177 [T402E], sequence (Q13177 whole entry T402E, looked up): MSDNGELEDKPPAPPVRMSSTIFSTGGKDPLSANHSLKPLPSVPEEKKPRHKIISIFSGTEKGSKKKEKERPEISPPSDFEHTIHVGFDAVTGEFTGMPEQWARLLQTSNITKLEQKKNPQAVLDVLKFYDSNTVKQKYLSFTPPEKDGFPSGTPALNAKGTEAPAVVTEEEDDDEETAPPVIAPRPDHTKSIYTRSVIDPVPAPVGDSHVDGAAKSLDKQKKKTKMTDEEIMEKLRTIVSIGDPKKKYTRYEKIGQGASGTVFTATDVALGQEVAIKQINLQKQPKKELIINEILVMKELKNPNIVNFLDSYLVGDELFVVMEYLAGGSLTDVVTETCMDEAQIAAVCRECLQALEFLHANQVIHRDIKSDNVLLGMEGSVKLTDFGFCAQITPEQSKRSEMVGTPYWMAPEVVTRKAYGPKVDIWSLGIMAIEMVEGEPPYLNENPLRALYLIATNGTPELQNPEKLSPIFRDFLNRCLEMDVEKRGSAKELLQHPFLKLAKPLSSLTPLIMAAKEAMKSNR

PAK4 (human) = PAK4 (human) (UniProt O96013)
PAK4 (human), sequence (O96013 whole entry, looked up): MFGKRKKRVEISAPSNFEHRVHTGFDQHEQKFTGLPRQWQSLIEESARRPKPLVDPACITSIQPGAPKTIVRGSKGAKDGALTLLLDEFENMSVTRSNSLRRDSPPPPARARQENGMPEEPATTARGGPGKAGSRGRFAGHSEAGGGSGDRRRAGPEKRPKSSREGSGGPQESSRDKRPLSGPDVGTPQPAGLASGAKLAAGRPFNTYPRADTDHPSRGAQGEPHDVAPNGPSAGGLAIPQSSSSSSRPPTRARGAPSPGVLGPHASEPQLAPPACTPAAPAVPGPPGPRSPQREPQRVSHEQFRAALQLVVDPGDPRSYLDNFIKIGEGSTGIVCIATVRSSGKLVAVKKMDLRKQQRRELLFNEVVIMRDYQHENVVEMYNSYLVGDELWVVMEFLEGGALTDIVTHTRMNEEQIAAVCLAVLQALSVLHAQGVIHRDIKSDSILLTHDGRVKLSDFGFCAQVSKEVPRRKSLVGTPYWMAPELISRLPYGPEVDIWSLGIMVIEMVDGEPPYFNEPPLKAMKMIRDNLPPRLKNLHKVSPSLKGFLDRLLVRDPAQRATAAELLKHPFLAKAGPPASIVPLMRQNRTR

PIM1 (human) = PIM1 (human) (UniProt P11309)
PIM1 (human), sequence (P11309 whole entry, looked up): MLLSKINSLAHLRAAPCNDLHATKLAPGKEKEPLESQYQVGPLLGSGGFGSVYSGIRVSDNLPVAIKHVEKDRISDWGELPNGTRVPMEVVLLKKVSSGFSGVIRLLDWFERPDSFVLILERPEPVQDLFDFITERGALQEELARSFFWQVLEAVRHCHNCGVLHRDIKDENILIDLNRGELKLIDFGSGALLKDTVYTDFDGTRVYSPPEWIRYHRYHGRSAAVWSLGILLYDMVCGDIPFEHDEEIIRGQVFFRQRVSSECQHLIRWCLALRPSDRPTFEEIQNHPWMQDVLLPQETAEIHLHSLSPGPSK

PRKCA (human) = PRKCA (human) (UniProt P17252)
RIPK2 (human) = RIPK2 (human) (UniProt O43353)
RIPK2 (human), sequence (O43353 whole entry, looked up): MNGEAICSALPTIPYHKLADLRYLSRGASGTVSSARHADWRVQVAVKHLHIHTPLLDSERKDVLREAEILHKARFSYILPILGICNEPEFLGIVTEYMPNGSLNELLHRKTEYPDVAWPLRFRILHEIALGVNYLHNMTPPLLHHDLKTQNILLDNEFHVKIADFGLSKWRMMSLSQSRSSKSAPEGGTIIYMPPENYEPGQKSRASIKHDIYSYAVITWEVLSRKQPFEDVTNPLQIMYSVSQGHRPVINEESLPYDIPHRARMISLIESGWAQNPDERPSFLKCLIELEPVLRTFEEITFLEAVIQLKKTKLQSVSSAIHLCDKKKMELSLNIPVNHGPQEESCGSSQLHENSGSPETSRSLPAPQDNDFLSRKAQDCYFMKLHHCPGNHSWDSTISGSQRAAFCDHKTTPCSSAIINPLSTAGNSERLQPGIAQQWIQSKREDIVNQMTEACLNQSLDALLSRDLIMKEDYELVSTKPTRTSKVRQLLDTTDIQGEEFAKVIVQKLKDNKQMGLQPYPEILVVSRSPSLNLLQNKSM

RPS6KA1 KD1 KD2 (human) = RPS6KA1 KD1 KD2 (human) (UniProt Q15418)
[3] = tested on: SGK1 (human), O00141 [S422D]
TTK (human) = TTK (human) (UniProt P33981)
[4] = tested on: ABL1 (human), P00519 [E255K]; assay: KINOMEscan competition binding; conditions: compound 10.0 µM
[5] = tested on: ABL1 (human), P00519 [Y253F]; assay: KINOMEscan competition binding; conditions: compound 10.0 µM
[6] = tested on: EGFR (human), P00533 [746-750 del]; assay: KINOMEscan competition binding; conditions: compound 10.0 µM
[7] = tested on: EGFR (human), P00533 [G719C]; assay: KINOMEscan competition binding; conditions: compound 10.0 µM
[8] = tested on: EGFR (human), P00533 [G719S]; assay: KINOMEscan competition binding; conditions: compound 10.0 µM
[9] = tested on: EGFR (human), P00533 [L861Q]; assay: KINOMEscan competition binding; conditions: compound 10.0 µM
[10] = tested on: EGFR (human), P00533 [P753S; 747-752 del]; assay: KINOMEscan competition binding; conditions: compound 10.0 µM
[11] = tested on: KIT (human), P10721 [V559D/V654A]; assay: KINOMEscan competition binding; conditions: compound 10.0 µM
MARK2 (human) = MARK2 (human) (UniProt Q7KZI7); assay: KINOMEscan competition binding; conditions: compound 10.0 µM
PIK3CA (human) = PIK3CA (human) (UniProt P42336); assay: KINOMEscan competition binding; conditions: compound 10.0 µM
[12] = tested on: PIK3CA (human), P42336 [H1047Y]; assay: KINOMEscan competition binding; conditions: compound 10.0 µM
PIK3CG (human) = PIK3CG (human) (UniProt P48736); assay: KINOMEscan competition binding; conditions: compound 10.0 µM

BRSK2 (human), sequence (Q8IWQ3 whole entry, looked up): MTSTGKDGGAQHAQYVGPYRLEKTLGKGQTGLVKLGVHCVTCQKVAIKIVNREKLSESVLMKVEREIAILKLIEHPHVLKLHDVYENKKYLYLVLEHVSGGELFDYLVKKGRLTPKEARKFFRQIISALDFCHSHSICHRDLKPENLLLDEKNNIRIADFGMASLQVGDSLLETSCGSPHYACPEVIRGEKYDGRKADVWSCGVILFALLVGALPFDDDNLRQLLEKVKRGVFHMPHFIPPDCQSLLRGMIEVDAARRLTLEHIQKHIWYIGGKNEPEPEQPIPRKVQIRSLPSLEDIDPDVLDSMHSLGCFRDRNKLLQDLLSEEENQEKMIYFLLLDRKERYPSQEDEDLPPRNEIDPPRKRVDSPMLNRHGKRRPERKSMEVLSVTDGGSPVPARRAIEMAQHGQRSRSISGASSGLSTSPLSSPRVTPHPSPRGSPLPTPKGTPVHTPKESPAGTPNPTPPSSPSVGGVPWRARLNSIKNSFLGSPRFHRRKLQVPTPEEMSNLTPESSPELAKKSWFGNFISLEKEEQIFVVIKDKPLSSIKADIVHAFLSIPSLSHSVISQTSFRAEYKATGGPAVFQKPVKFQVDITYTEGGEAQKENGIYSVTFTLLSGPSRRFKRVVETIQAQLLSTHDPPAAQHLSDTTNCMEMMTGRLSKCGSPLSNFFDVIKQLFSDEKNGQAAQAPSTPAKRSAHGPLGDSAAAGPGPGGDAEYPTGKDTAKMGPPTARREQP
AURKA (human), sequence (O14965 whole entry, looked up): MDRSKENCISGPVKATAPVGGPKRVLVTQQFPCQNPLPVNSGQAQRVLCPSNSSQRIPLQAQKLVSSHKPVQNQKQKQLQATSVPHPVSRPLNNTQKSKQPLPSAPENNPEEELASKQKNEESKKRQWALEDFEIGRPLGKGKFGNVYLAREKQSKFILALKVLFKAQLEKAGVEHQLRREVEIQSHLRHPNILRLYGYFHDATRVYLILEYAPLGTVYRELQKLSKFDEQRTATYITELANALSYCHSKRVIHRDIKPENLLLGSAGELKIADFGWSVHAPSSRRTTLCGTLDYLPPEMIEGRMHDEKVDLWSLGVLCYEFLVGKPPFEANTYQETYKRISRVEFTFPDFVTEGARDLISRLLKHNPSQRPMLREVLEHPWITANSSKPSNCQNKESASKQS
CSK (human), sequence (P41240 whole entry, looked up): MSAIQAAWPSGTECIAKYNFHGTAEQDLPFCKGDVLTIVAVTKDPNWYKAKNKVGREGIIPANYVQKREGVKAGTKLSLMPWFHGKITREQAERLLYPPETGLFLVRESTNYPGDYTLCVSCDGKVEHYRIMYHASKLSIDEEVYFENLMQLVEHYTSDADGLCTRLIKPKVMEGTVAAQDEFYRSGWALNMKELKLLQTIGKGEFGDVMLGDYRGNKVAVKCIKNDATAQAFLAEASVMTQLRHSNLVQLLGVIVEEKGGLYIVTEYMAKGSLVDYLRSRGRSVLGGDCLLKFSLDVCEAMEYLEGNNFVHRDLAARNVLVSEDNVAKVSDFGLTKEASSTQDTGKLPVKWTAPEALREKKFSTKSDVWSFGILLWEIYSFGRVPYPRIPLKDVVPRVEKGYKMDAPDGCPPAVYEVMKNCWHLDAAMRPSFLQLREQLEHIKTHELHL

## CCC(=O)N1CCN(c2ccc(-n3c(=O)ccc4cnc5ccc(-c6cnc7ccccc7c6)cc5c43)cc2C(F)(F)F)CC1
[1]; compound 1.0 µM
  per cent of control: 95%
[1]; compound 10.0 µM
  per cent of control: 84%
AURKA (human); compound 1.0 µM
  per cent of control: 88%
AURKA (human); compound 10.0 µM
  per cent of control: 68%
BRSK2 (human); compound 1.0 µM
  per cent of control: 102%
BRSK2 (human); compound 10.0 µM
  per cent of control: 104%
CSK (human); compound 1.0 µM
  per cent of control: 101%
CSK (human); compound 10.0 µM
  per cent of control: 83%
CaMK1 (human); compound 1.0 µM
  per cent of control: 104%
CaMK1 (human); compound 10.0 µM
  per cent of control: 77%
EPHA2 (human); compound 1.0 µM
  per cent of control: 120%
EPHA2 (human); compound 10.0 µM
  per cent of control: 87%
FLT1 (human); compound 1.0 µM
  per cent of control: 108%
FLT1 (human); compound 10.0 µM
  per cent of control: 84%
GCK (human); compound 1.0 µM
  per cent of control: 69%
GCK (human); compound 10.0 µM
  per cent of control: 25%
HIPK1 (human); compound 1.0 µM
  per cent of control: 76%
HIPK1 (human); compound 10.0 µM
  per cent of control: 85%
HIPK2 (human); compound 1.0 µM
  per cent of control: 96%
HIPK2 (human); compound 10.0 µM
  per cent of control: 88%
HIPK3 (human); compound 1.0 µM
  per cent of control: 107%
HIPK3 (human); compound 10.0 µM
  per cent of control: 91%
LCK (mouse); compound 1.0 µM
  per cent of control: 93%
LCK (mouse); compound 10.0 µM
  per cent of control: 78%
MAPK1 (human); compound 1.0 µM
  per cent of control: 102%
MAPK1 (human); compound 10.0 µM
  per cent of control: 90%
MAPK11 (human); compound 1.0 µM
  per cent of control: 83%
MAPK11 (human); compound 10.0 µM
  per cent of control: 78%
MAPKAPK3 (human); compound 1.0 µM
  per cent of control: 113%
MAPKAPK3 (human); compound 10.0 µM
  per cent of control: 105%
[2]; compound 1.0 µM
  per cent of control: 93%
[2]; compound 10.0 µM
  per cent of control: 82%
PAK4 (human); compound 1.0 µM
  per cent of control: 110%
PAK4 (human); compound 10.0 µM
  per cent of control: 66%
PIM1 (human); compound 1.0 µM
  per cent of control: 82%
PIM1 (human); compound 10.0 µM
  per cent of control: 24%
PRKCA (human); compound 1.0 µM
  per cent of control: 83%
PRKCA (human); compound 10.0 µM
  per cent of control: 68%
RIPK2 (human); compound 10.0 µM
  per cent of control: 64%
RPS6KA1 KD1 KD2 (human); compound 1.0 µM
  per cent of control: 93%
RPS6KA1 KD1 KD2 (human); compound 10.0 µM
  per cent of control: 71%
[3]; compound 1.0 µM
  per cent of control: 79%
[3]; compound 10.0 µM
  per cent of control: 60%
TTK (human); compound 1.0 µM
  per cent of control: 79%
TTK (human); compound 10.0 µM
  per cent of control: 71%

## COC(=O)Nc1ccc(-c2nc(N3CCOCC3)c3cnn(C4CCN(C(=O)OC)CC4)c3n2)cc1
[1]; compound 1.0 µM
  per cent of control: 102%
[1]; compound 10.0 µM
  per cent of control: 89%
AURKA (human); compound 1.0 µM
  per cent of control: 90%
AURKA (human); compound 10.0 µM
  per cent of control: 63%
BRSK2 (human); compound 1.0 µM
  per cent of control: 95%
BRSK2 (human); compound 10.0 µM
  per cent of control: 88%
CSK (human); compound 1.0 µM
  per cent of control: 113%
CSK (human); compound 10.0 µM
  per cent of control: 106%
CaMK1 (human); compound 1.0 µM
  per cent of control: 97%
CaMK1 (human); compound 10.0 µM
  per cent of control: 102%
EPHA2 (human); compound 1.0 µM
  per cent of control: 106%
EPHA2 (human); compound 10.0 µM
  per cent of control: 104%
FLT1 (human); compound 1.0 µM
  per cent of control: 100%
FLT1 (human); compound 10.0 µM
  per cent of control: 88%
GCK (human); compound 1.0 µM
  per cent of control: 94%
GCK (human); compound 10.0 µM
  per cent of control: 105%
HIPK1 (human); compound 1.0 µM
  per cent of control: 85%
HIPK1 (human); compound 10.0 µM
  per cent of control: 89%
HIPK2 (human); compound 1.0 µM
  per cent of control: 95%
HIPK2 (human); compound 10.0 µM
  per cent of control: 94%
HIPK3 (human); compound 1.0 µM
  per cent of control: 112%
HIPK3 (human); compound 10.0 µM
  per cent of control: 85%
LCK (mouse); compound 1.0 µM
  per cent of control: 100%
LCK (mouse); compound 10.0 µM
  per cent of control: 91%
MAPK1 (human); compound 1.0 µM
  per cent of control: 109%
MAPK1 (human); compound 10.0 µM
  per cent of control: 108%
MAPK11 (human); compound 1.0 µM
  per cent of control: 82%
MAPK11 (human); compound 10.0 µM
  per cent of control: 81%
MAPKAPK3 (human); compound 1.0 µM
  per cent of control: 109%
MAPKAPK3 (human); compound 10.0 µM
  per cent of control: 101%
[2]; compound 1.0 µM
  per cent of control: 92%
[2]; compound 10.0 µM
  per cent of control: 91%
PAK4 (human); compound 1.0 µM
  per cent of control: 93%
PAK4 (human); compound 10.0 µM
  per cent of control: 97%
PIM1 (human); compound 1.0 µM
  per cent of control: 117%
PIM1 (human); compound 10.0 µM
  per cent of control: 103%
PRKCA (human); compound 1.0 µM
  per cent of control: 81%
PRKCA (human); compound 10.0 µM
  per cent of control: 75%
RIPK2 (human); compound 1.0 µM
  per cent of control: 94%
RIPK2 (human); compound 10.0 µM
  per cent of control: 72%
RPS6KA1 KD1 KD2 (human); compound 1.0 µM
  per cent of control: 100%
RPS6KA1 KD1 KD2 (human); compound 10.0 µM
  per cent of control: 102%
[3]; compound 1.0 µM
  per cent of control: 85%
[3]; compound 10.0 µM
  per cent of control: 77%
TTK (human); compound 1.0 µM
  per cent of control: 91%
TTK (human); compound 10.0 µM
  per cent of control: 93%
[4]
  kinase still bound, per cent of control: 100%
[5]
  kinase still bound, per cent of control: 90%
[6]
  kinase still bound, per cent of control: 100%
[7]
  kinase still bound, per cent of control: 100%
[8]
  kinase still bound, per cent of control: 95%
[9]
  kinase still bound, per cent of control: 100%
[10]
  kinase still bound, per cent of control: 86%
[11]
  kinase still bound, per cent of control: 100%
MARK2 (human)
  kinase still bound, per cent of control: 100%
PIK3CA (human)
  kinase still bound, per cent of control: 5.4%
[12]
  kinase still bound, per cent of control: 7.8%
PIK3CG (human)
  kinase still bound, per cent of control: 78%
